For one compound, IC50 results are on record in paper PMC12638251, “Uridine-sensitized screening identifies demethoxy-coenzyme Q and NUDT5 as regulators of nucleotide synthesis” (Nature Metabolism, 2025).

The assay has as its target T1, PPAT (amidophosphoribosyltransferase) (Homo sapiens, UniProt Q06203).
T1 construct: with NUDT5
In words: native PAGE of K562 lysate with PRPP dose curve (loss of NUDT5-PPAT oligomer); co-immunoprecipitation with […] PRPP. The class given is biochemical.

T1 sequence (Q06203 12-517): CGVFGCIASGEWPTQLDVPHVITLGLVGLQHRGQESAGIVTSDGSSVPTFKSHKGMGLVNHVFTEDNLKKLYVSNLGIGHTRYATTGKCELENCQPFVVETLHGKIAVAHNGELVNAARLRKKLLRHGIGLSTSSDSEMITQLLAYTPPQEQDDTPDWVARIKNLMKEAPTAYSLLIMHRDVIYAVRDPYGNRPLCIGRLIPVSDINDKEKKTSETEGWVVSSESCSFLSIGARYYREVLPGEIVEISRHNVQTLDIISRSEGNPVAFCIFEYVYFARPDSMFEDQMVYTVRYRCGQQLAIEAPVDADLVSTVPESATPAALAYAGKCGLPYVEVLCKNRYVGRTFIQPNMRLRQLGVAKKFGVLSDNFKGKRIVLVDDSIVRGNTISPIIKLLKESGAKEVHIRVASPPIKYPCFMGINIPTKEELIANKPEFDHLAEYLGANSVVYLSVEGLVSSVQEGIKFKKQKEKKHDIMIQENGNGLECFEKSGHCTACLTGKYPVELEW
T1 sequence (O95848 whole entry partner): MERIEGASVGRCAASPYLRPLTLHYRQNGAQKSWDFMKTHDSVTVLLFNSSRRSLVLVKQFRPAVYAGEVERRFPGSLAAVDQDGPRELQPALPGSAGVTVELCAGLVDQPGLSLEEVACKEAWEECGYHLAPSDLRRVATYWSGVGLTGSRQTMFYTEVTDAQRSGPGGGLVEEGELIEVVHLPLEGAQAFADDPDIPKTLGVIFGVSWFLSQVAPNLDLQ

In general, IC50 refers to the midpoint of a concentration-inhibition curve. Low readings indicate inhibition by little substance, high ones a need for much substance. The compound `O=P(O)(O)OC[C@H]1OC(OP(=O)(O)OP(=O)(O)O)[C@H](O)[C@@H]1O` (stereo partly shown) [PRPP, phosphoribosyl pyrophosphate] returned an IC50 of 100 µM.
